{
  "source": "patent US6177475A",
  "about": "“Methods of using integrin modulators for treatment of inflammation” (priority 1997, dated 2001)",
  "key": {"[1]": {"system": "HIV-1RF", "experiment": "HIV-1RF replication in H9 cells (HIV antigens by solid phase immunoassay)", "type": "cell-based", "conditions": "Human immunodeficiency virus 1, m.o.i. 0.1, 72 h"}, "[2]": {"system": "H9 cells", "experiment": "Disruption of cell clusters formed by H9 cells in culture", "type": "cell-based", "conditions": "Homo sapiens, 16 to 24 h", "protocol": "T-lymphocytic H9 and Jurkat cells were maintained as suspension cultures in RPMI-1640 medium supplemented with 10% (v/v) heat-inactivated fetal calf serum, 50 micrograms/ml gentamycin and 2 mM L-glutamine. To assess the effects of Ajoene on adhesive interactions of the cells, H9 cells or Jurkat cells were seeded in 96-well flat-bottomed plates (3×10^5cells per well) and cultured in the presence of log 10 dilutions of Ajoene (experiment) or its vehicle (control) for 16 to 24 h.\nThe requirement of integrins for the formation of cell-to-cell contacts in each of these systems has long been established. It is known that in platelets the relevant integrin is GP IIb/IIIa (β3). Neutrophil aggregation is underlain by interactions of β2 integrins (e.g., LFA-1 and/or Mac-1) with their surface counterstructures, while cohesion of T-cells is supported by both β2 integrins and fibronectin-binding β1 integrins (e.g., VLA-4 and VLA-5)."}, "[3]": {"system": "111In-labeled neutrophils", "experiment": "Neutrophil recruitment to inflamed joints in rat adjuvant arthritis", "type": "in vivo", "conditions": "50 mg/kg i.v.; for Accumulation of 111In-labeled Neutrophils (mean ± SEM): 2 h", "protocol": "Rat adjuvant arthritis is characterized by integrin-mediated migration of ^51 Cr-labeled monocytes and ^111 In-labeled neutrophils into the inflamed synovium, which attains maximum between days 14 and 21 after the immunization. This model of human rheumatoid arthritis was used to assess in vivo effects of Ajoene on integrins that are known to be modulated by Ajoene in vitro.\nAdjuvant arthritis was induced in 6-8 week old inbred male Lewis rats by immunization on the lower back with 0.5 mg Mycobacterium butyricum (Difco Laboratories, Inc., Detroit, Mich.) in 0.05 ml mineral oil in two sites subcutaneously at the base of the tail. All the animals developed polyarticular arthritis between days 11 and 13 after immunization. For clinical scoring, 0-4 points were assigned per limb and tail, based on the severity of erythema, swelling, and limitation of movement (the maximal possible score was 20).\nRat blood monocytes and neutrophils for migration studies were obtained by the hydroxyethyl starch (HES) exchange transfusion technique. The total blood volume of a donor rat was exchanged using 50 ml 6% HES solution in saline (DuPont Chemical Co., Dorval, Canada). After recovery of 40-45 ml blood/HES perfusate, the red cells were allowed to sediment (1 g) and the leukocyte-rich plasma was harvested. The leukocytes were recovered by centrifugation, resuspended in calcium-magnesium-free Tyrode's solution supplemented with 10% platelet-poor plasma (TS-PPP), and centrifuged in a discontinuous 63%/74% gradient of isotonic Percoll (Pharmacia Fine Chemicals, Dorval, Canada). The top layer, containing mononuclear cells (MN), and the cells in the 63%/74% interface, containing neutrophils, were collected, washed, and resuspended in TS-PPP. To obtain purified monocytes, the osmolality of the MN suspension was increased by adding 9% NaCl, and the suspension was centrifuged in a 40%/55%/58% Percoll gradient; monocytes were harvested at 40%/55% and […] interfaces, washed, and resuspended in TS-PPP.\nThereafter, monocytes (10^7 cells/ml) were labeled with 75 microCurie/ml of Na2^51 CrO4 (Amersham, Oakville, Canada) at 37° C. for 30 min. Neutrophils (10^7 cells/ml) were labeled with 1 microCurie/ml of ^111 In oxine (Amersham) for 10 min. Both populations were washed to remove excess labeled material and checked for viability and purity. The viability of either cell population used in the experiments was in excess of 95% (as double-checked by Trypan blue exclusion and neutral red staining). The separation procedure described above ordinarily produced populations that contained no less than 90% monocytes and no less than 95% neutrophils. […]"}, "[4]": {"system": "H9RF cells / H9 cells (HIV-1RF)", "experiment": "HIV-induced syncytium formation, H9RF donor with H9 recipient", "type": "cell-based", "source_text": "For curve 1, the effect of Ajoene on the fusion of cultured, intact H9 cells with HIV infected H9RF cells is disclosed. For this curve, the vertical graph axis pertains to the maximum amount of syncytia formed in the absence of Ajoene (100 percent), while the points on line 1 represent percentages of such an amount of syncytia formed in the presence of varying concentrations of Ajoene (micromoles per liter).\nChronically infected and uninfected cell lines (HIV donors and targets, respectively) were maintained as suspension cultures in RPNI-1640 medium supplemented with 10% (v/v) heat-inactivated fetal calf serum, 50 micrograms/ml gentamycin and 2 mM L-glutamine. HIV donors used were (1) a cloned population of H9 cells harboring the genome of HIV-1RF (H9RF cells); and (2) a cloned population of SupT1 cells harboring the genome of HIV-1LAV-BRU (SupT1LAV-BRU cells). To assess the effect of Ajoene on syncytium formation, the donors were mixed with their respective recipients, H9 and SupT1, at a ratio of 1:2 in 96-well flat-bottomed plates (3×10^5 cells per well). Log 10 dilutions of Ajoene were then introduced into the wells, and the cells were cocultured for 16 h. Control wells received the vehicle of Ajoene. By the end of the incubation period syncytia were counted, and the values of IC50 for Ajoene were calculated by plotting relative amounts of syncytia (percent of the syncytia formed in the absence of the compound) against Ajoene concentration."}, "[5]": {"system": "melanoma B16 cells", "experiment": "Melanoma cell implantation (subcutaneous B16)", "type": "in vivo, C57BL/6 mice", "conditions": "Mus musculus, sc; B16 cells pretreated 15 min; tumor volume at 14 and 21 days", "protocol": "Male C57BL/6 mice were inoculated subcutaneously with 10^6 B16 cells (pretreated for 15 min with Ajoene) in their pretreatment medium, and the volume of the tumors formed was measured 14 and 21 days after the injection."}, "[6]": {"system": "MT-4 cells", "type": "cell-based"}},
  "note": "Like-named read-outs stand apart in the source and are kept apart here.",
  "data": [
    {"smiles": "C=CCSSC=CC[S+]([O-])CC=C", "note": "(stereo not drawn) [Ajoene, 4,5,9-trithiadodeca-1,6,11-triene-9-oxide]", "values": [
      {"measurement": "IC50", "setting": "[1]", "value": 25, "unit": "µM"},
      {"measurement": "IC50", "setting": "[2]", "value": "~0.05", "unit": "µM"},
      {"measurement": "inhibition of neutrophil recruitment to the talar joints", "setting": "[3]", "value": "~ 50%"},
      {"measurement": "Accumulation of 111In-labeled Neutrophils (mean ± SEM)", "setting": "[3]; talar joint, P < 0.001", "value": "15,052 cpm per sample"},
      {"measurement": "Accumulation of 111In-labeled Neutrophils (mean ± SEM)", "setting": "[3]; tarsal joint, P = 0.085", "value": "7,353 cpm per sample"},
      {"measurement": "Accumulation of 111In-labeled Neutrophils (mean ± SEM)", "setting": "[3]; vertebral joints, P = 0.089", "value": "3,658 cpm per sample"},
      {"measurement": "syncytia found (FIG. 1, curve 1)", "setting": "[4]; 50 micromoles of Ajoene per liter", "value": "Essentially no syncytia were found"},
      {"measurement": "IC50", "setting": "[4]; Human immunodeficiency virus 1, H9, 16 h incubation, both donor/recipient systems, read-out: IC50 range for fusion and syncytium formation", "value": "0.005 to 0.05", "unit": "µM"},
      {"measurement": "IC50", "setting": "[4]; Human immunodeficiency virus 1, H9RF donor, H9 recipient, 16 h, read-out: IC50 of Ajoene, syncytium formation", "value": "~0.05", "unit": "µM"},
      {"measurement": "IC50", "setting": "[4]; Human immunodeficiency virus 1, H9 with H9RF cells, read-out: IC50 of syncytium formation (FIG. 1, curve 1)", "value": 0.045, "unit": "µM"},
      {"measurement": "IC50", "setting": "[5]", "value": 2.5, "unit": "µM"},
      {"measurement": "toxic effects on the cells", "setting": "[6]", "value": "without any toxic effects on the cells"}
    ]}
  ]
}
